Values joined by “and” are separate entries in the source; they are usually repeats but may differ in a detail not shown here. Equal entries are not always repeated. Structures can show the parent of a compound that is named as a salt.

The target of one data set is purified PARP protein (Homo sapiens, UniProt P09874). In words: PARP enzyme inhibition assay. Format: biochemical. Conditions: Inhibition Constant Ki.
Chain of purified PARP protein (P09874 whole entry): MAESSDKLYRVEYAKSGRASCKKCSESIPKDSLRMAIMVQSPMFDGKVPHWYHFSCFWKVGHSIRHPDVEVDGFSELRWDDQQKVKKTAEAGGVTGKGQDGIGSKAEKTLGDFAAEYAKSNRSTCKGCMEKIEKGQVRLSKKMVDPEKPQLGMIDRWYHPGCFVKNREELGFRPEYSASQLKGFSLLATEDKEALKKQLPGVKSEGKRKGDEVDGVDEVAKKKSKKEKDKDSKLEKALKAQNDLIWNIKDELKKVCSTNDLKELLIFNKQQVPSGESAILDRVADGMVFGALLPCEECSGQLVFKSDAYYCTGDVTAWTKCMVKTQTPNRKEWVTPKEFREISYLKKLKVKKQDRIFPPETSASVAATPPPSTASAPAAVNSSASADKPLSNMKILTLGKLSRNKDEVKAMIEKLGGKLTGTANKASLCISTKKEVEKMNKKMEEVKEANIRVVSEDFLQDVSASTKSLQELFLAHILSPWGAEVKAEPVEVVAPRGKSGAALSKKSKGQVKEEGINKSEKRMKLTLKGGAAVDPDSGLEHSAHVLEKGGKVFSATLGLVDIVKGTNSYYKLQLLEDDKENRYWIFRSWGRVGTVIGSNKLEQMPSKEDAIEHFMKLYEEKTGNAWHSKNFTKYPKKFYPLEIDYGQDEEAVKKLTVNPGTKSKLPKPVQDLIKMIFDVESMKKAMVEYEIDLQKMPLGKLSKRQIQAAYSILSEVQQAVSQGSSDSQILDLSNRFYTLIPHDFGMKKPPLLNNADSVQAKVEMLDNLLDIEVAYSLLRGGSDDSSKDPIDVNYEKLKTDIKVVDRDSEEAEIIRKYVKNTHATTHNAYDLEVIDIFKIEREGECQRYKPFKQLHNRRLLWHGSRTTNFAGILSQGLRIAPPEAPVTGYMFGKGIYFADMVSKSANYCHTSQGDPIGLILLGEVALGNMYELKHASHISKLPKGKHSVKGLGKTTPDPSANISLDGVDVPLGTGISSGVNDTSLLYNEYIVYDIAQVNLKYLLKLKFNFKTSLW
As to `O=C1NCCc2c(-c3ccc[nH]3)[nH]c3cccc1c23` [DDDD, 2-(1H-Pyrrol-2-yl)-1,3,4,5-etatrhydro-azepino[5,4,3-cd]indol-6-one], the affinity, expressed as Ki, was 7.7 nM.

The same data set, now with this note: [32P]NAD+ incorporation, 500 μM NAD+, 25° C.; two values in a cell = tested twice; read-out: Inhibition Constant Ki.
Consider `O=C1NCCc2c(-c3ccc(F)c(Cl)c3)[nH]c3cccc1c23` [Compound 35, 2-(3-Chloro-4-fluoro-phenyl)-1,3,4,5-tetrahydro-azepino[5,4,3-cd]indol-6-one], for which the Ki is 3.8 nM and 5.8 nM.

For the molecule `O=C(Nc1cccc2ccccc12)c1[nH]c2cccc3c2c1CCNC3=O` [NNNN, 6-Oxo-1,3,4,5-tetrahydro-1H-azepino[5,4,3-cd]indole-2-carboxylic Acid naphthalen-1-ylamide], the Ki was 10 nM.

As to `CSc1ccccc1-c1[nH]c2cccc3c2c1CCNC3=O` [LLL, 2-(2-Methylsulfanyl-phenyl)-1,3,4,5-tetrahydro-azepino[5,4,3-cd]indol-6-one], the Ki worked out at 32 nM.

Regarding `O=C1NCCc2c(C#Cc3ccccc3)[nH]c3cccc1c23` [Compound 17], the Ki stood at 6.5 nM.

Take `O=C1NN=C(C(F)(F)C(F)(F)F)c2c[nH]c3cccc1c23` [ZZZZ, 1,5-Dihydro-3-pentafluoroethyl-[1,2]diazepino[4,5,6-cd]-indol-6-one]: the Ki came out at 40 nM.

Turning to `O=C1NCCc2c(I)[nH]c3cccc1c23` [Compound 43, 2-Iodo-1,3,4,5-tetrahydro-azepino[5,4,3-cd]indol-6-one], the Ki was found to be 2.6 nM.

In the case of `O=C1NCCc2c(-c3[nH]c4cccc5c4c3CCNC5=O)[nH]c3cccc1c23` [Compound TTT, 1,3,4,5,1′,3′,4′,5′-Octahydro-[2,2′]bi[azepino[5,4,3-cd]indolyl]-6,6′-dione], the Ki worked out at 26 nM.

Turning to `O=C1NCc2c(-c3ccccc3)[nH]c3cccc1c23` [Compound 3, Phenyl-3,4-dihydropyrrolo[4,3,2-de]isoquinolin-5-(1H)-one], the inhibition constant (Ki) worked out at 2.8 nM.

Take `O=C(NC1CC1)c1[nH]c2cccc3c2c1CCNC3=O` [QQQQ, 6-Oxo-1,3,4,5-tetrahydro-1H-azepino[5,4,3-cd]indole-2-carboxylic Acid Cyclopropylamide]: the Ki is 21 nM.

With `O=C1NN=Cc2c(-c3ccc(Cl)cc3)[nH]c3cccc1c23` [ZZZ, (4-Chloro-phenyl)-1,5-dihydro-[1,2]diazepino[4,5,6-cd]indol-6-one], the Ki is 0.7 nM.

Turning to `Cn1c(-c2ccccc2)c2c3c(cccc31)C(=O)NCC2` [Compound 18, 1-Methyl-2-phenyl-3,4,5,6-tetrahydro-1H-azepino[5,4,3-cd]indol-6-one], the Ki was above 1000 nM.

As to `O=C1NCCc2c(-c3cccc(CN4CCOCC4)c3)[nH]c3cccc1c23` [SSSS, 2-(3-Morpholin-4-ylmethylphenyl)-3,4,5,6-tetrahydro-1H-azepino[5,4,3-cd]indol-6-one], the Ki worked out at 19 nM.

Take `O=C(O)c1[nH]c2cccc3c2c1CCNC3=O` [KKK, 6-Oxo-3,4,5,6-tetrahydro-1H-azepino[5,4,3-cd]indole-2-carboxylic acid sodium salt]: the inhibition constant Ki was found to be 222 nM.

Consider `COc1ccc(C2CNC(=O)c3cccc4[nH]cc2c34)cc1` (racemic) [RRRR, (rac)-3-(4-Methoxyphenyl)-3,4,5,6-tetrahydro-1H-azepino[5,4,3-cd]indol-6-one], for which the Ki amounted to 61 nM.

`O=C1NCCc2c[nH]c3cccc1c23` [Compound 10, 3,4,5,6-tetrahydro-1H-azepino[5,4,3-cd]indol-6-one]: the Ki is 38 nM.

Take `O=C1NN=Cc2c(-c3ccc(F)cc3)[nH]c3cccc1c23` [AAAA]: the Ki came out at 1.1 nM.

Regarding `CN(C)Cc1cccc(-c2[nH]c3cccc4c3c2CNC4=O)c1` [Compound 25], the Ki was determined as 4 nM.

`O=C1NCCc2c(Br)[nH]c3cccc1c23` [Compound 11, 2-Bromo-3,4,5,6-tetrahydro-1H-azepino[5,4,3-cd]indol-6-one]: the Ki stood at 7.3 nM.

Consider `CC(=O)Nc1ccc(F)cc1-c1[nH]c2cccc3c2c1CCNC3=O` [NNN, N-[4-Fluoro-2-(6-oxo-3,4,5,6-tetrahydro-1H-azepino[5,4,3-cd]indol-2-yl)-phenyl]-acetamide], for which the Ki stood at 172 nM.

As for `O=C1NN=C(c2ccc(C(F)(F)F)cc2)c2c[nH]c3cccc1c23` [YYYY], the Ki stood at 9 nM.

With `O=C1NCCc2c(-c3ccccc3)[nH]c3cc(Br)cc1c23` [Compound 26, 8-Bromo-2-phenyl-3,4,5,6-tetrahydro-1H-azepino[5,4,3-cd]indol-6-one], the Ki was 22 nM and 18 nM.

Turning to `Nc1cccc(-c2[nH]c3cccc4c3c2CCNC4=O)c1` [RR, 2-(3-Aminophenyl)-3,4,5,6-tetrahydro-1H-azepino[5,4,3-cd]indol-6-one], the Ki was found to be 6.9 nM.

With `O=C(Nc1ccc(Cl)cc1)c1[nH]c2cccc3c2c1CCNC3=O` [LLLL, 6-Oxo-1,3,4,5-tetrahydro-1H-azepino[5,4,3-cd]indole-2-carboxylic acid (4-chlorophenyl)-amide], the Ki worked out at 8.6 nM.

Take `O=C1NCCc2c(-c3cccc([N+](=O)[O-])c3)[nH]c3cccc1c23` [Compound 14, 2-(3-Nitrophenyl)-3,4,5,6-tetrahydro-1H-azepino[5,4,3-cd]indol-6-one]: the Ki came out at 1.4 nM.

As to `O=C1NCCc2c(-c3ccc(CO)cc3)[nH]c3cccc1c23` [WWWW, 2-(4-Hydroxymethylphenyl)-3,4,5,6-tetrahydro-1H-azepino[5,4,3-cd]indol-6-one], the inhibitory constant (Ki) was determined as 5.7 nM.

For `O=C(Nc1ccc2ccccc2c1)c1[nH]c2cccc3c2c1CCNC3=O` [MMMM, 6-Oxo-1,3,4,5-tetrahydro-1H-azepino[5,4,3-cd]indole-2-carboxylic Acid naphthalen-2-ylamide], the Ki turned out to be 16 nM.

Regarding `O=C1NCC(c2ccccc2)c2c[nH]c3cccc1c23` (racemic) [Compound 20, (rac)-3-Phenyl-3,4,5,6-tetrahydro-1H-azepino[5,4,3-cd]indol-6-one], the Ki is 45 nM.

Tested on in the next data set: not given
Experiment: not given
Details: not given
`O=C(Nc1cccc2ccccc12)c1[nH]c2cccc3c2c1CCNC3=O` [NNNN, 6-Oxo-1,3,4,5-tetrahydro-1H-azepino[5,4,3-cd]indole-2-carboxylic Acid naphthalen-1-ylamide]: the melting point was 330 to 332 °C (dec.).

`CSc1ccccc1-c1[nH]c2cccc3c2c1CCNC3=O` [LLL, 2-(2-Methylsulfanyl-phenyl)-1,3,4,5-tetrahydro-azepino[5,4,3-cd]indol-6-one] yielded a melting point of 271 to 272 °C.

Turning to `O=C(Nc1ccccc1)c1[nH]c2cccc3c2c1CCNC3=O` [KKKK, 6-Oxo-1,3,4,5-tetrahydro-1H-azepino[5,4,3-cd]indole-2-carboxylic Acid Phenylamide], the melting point was 320 to 322 °C (dec.).

Regarding `O=C1NCCc2c(-c3cccnc3)[nH]c3cccc1c23` [HHH, 2-Pyridin-3-yl-1,3,4,5-tetrahydro-azepino[5,4,3-cd]indol-6-one], the melting point lay within 260.5 to 262 °C.

Consider `CN1CCc2c(-c3ccccc3)n(C)c3cccc(c23)C1=O` [Compound 18a, 1,5-dimethyl-2-phenyl-3,4,5,6-tetrahydro-1H-azepino[5,4,3-cd]indol-6-one], for which the melting point is 175 to 177 °C.

For the molecule `O=C1NCCc2c(-c3cccc4ccccc34)[nH]c3cccc1c23` [Compound 41, 2-Naphthalen-1-yl-1,3,4,5-tetrahydro-azepino[5,4,3-cd]indol-6-one], the melting point was 305 °C (dec.).

As to `O=C1NCCc2c(-c3cccs3)[nH]c3cccc1c23` [BBBB, 2-Thiophen-2-yl-1,3,4,5-tetrahydro-azepino[5,4,3-cd]indol-6-one], the melting point fell in the range of 220.5 to 222.5 °C.

For the molecule `O=C1NCCc2c(-c3ccc4[nH]ccc4c3)[nH]c3cccc1c23` [VVV, 2-(1H-Indol-5-yl)-1,3,4,5-tetrahydro-azepino[5,4,3-cd]indol-6-one], the melting point is 315 to 317 °C (dec.).
